# Source: patent US9162992B2, “Compounds and compositions for treatment of breathing control disorders or diseases” (GALLEON PHARMACEUTICALS, INC., priority 2010, dated 2015)
# Where “and” joins values, the source holds several entries; their conditions need not be identical. Equal values may be shown once. Read-outs that look alike come from different tables or passages of the source.
# Tests used:
# [1] = Solubility as a function of pH (100 mM citric acid, room temperature); format: physicochemical; conditions: for solubility / solubility thermodynamic: thermodynamic from solid; for solubility thermodynamic: 100 mM citric acid buffer, read-out: (XXXVI) concentration; for (XXXVI) concentration: not saturated
# Description: A solution of (XXXVI) of concentration ˜[…] in 100 mM citric acid at pH 2.5 was prepared. About 150 μL aliquots of this solution were transferred into 6 separate glass HPLC vials. Each aliquot was titrated with 6N sodium hydroxide to different pH values in the range 3-5.5 (Table 12A). All the samples, including the solution at pH 2.5, were shaken overnight at room temperature using a gyratory shaker. After shaking, the samples were evaluated visually for the presence of precipitate and were then spin filtered through 0.45 μm syringe tip filters (4 mm diameter) at 3,000 rpm for 20 min. The final pH values of the filtrates were measured. The filtrates were then diluted appropriately and analyzed for (XXXV) concentration using the HPLC assay.
# This equation is a simplified representation of solubility equilibrium for weak bases that assumes that total solubility is much larger than the solubility of the free base in the pH range of interest: log S=log S0+log(1+10^pKa-pH) Equation 1 where, ‘S’ is total solubility; ‘S0’ is the solubility of the free base.
# [2] = Solubility in solvents and IV solutions; format: physicochemical
# Description: The solubility of (XXXXVI) and XXXV was evaluated in various solvents and IV solutions. Due to limits on the API supply at the time the study was conducted, most of the solvent systems were evaluated to a level of only 100 mg/mL even if the solution was not saturated at this level. Only in water was an attempt made to reach saturation solubility, regardless of how high that solubility might be. Solubility of the salt/free base in each solvent was evaluated in duplicate.
# For solubility in water, drug was added with intermittent shaking to ensure that excess undissolved drug is present indicating saturation […]. The filtrates were diluted appropriately and analyzed for (XXXV) concentration by HPLC.
# healthy subjects = assay: Ventilation, safety and pharmacokinetics in human volunteers, single-rising dose IV infusion; format: in vivo
# Description: A randomized, double-blind, placebo-controlled nine-period single-rising dose study in three alternating cohorts of healthy subjects was conducted at a single center in conformance with Good Clinical Practice. Compound (XXXVI) was synthesized according to Good Manufacturing Practice. Three (3) Cohorts of ten subjects each were randomized to treatment in a ratio of 4:1 (8 treated, 2 placebo) in a rotating panel design. Subjects in the first cohort participated in dosing periods 1, 4, and 7, with the second cohort participating in dosing periods 2, 5, and 8, and third cohort participating in dosing period 3, 6, and 9. The subjects who received placebo in their first dosing period also received placebo in their second and third dosing periods. Similarly, drug-treated subjects received drug all three dosing periods. In the first Cohort, on the first dose only, 2 subjects were dosed on Day 1 with one subject receiving active drug and one subject receiving placebo. Following a review of available safety and tolerability data (excluding PK), the remainder of Cohort 1 was dosed the following day. Subjects were dosed as detailed in Table 11 with a minimum of 1-week washout between doses.
# Subjects could be screened up to 28 days before the treatment period. On the evening before dosing, subjects were admitted to the clinical site and baseline evaluations were conducted. After an overnight fast, subjects received an intravenous infusion of Compound (XXXVI) or placebo then PD, PK, and safety evaluations were conducted during the next 24 hours. Cohort 1 was enrolled to the lowest dose group and randomized to Compound (XXXVI) or placebo. Safety and tolerability evaluations for each dose included all safety assessments obtained through approximately 24 hours post-dose.
# Pharmacodynamic endpoints were assessed by two independent systems consisting of Dräger Infinity patient monitoring system and a portable NOX-T3 respiratory monitoring system. The Dräger system is an inpatient intensive care/postoperative monitoring system used to monitor minute ventilation, respiratory rate (RR), tidal volume (VT) via a pneumotachometer (Capnostat sensor), transcutaneous oxygen hemoglobin saturation (SpO2), and end tidal carbon dioxide (ETCO2) (Capnostat sensor). NOX/T3 is a portable monitoring device used for home diagnostic sleep apnea assessments. In this study, NOX device monitored RR, VT via respiratory inductance plethysmography (RIP), SpO2 (Nonin), actigraphy, nasal air flow, and audio recording of the dosing session. In addition to monitoring pharmacodynamic effects, the Dräger system was also used to monitor subject real-time safety. Standard safety assessments were measured repeatedly throughout the dosing session, and consisted of vital signs (BP, HR, RR, temperature (oral)), Ramsay Sedation Scale (RSS), and pulmonary function testing.
# Test Product, Dose, Mode of Administration, Batch and Lot No(s): Compound (XXXVI) was prepared as a sterile product for injection ready for dilution in normal saline and administration by infusion. Doses were based on the subject's weight on a milligram per kilogram basis and were administered over a 1-, 2-, 3- or 4-hour infusion as described in Table 11. Compound (XXXVI) (Batch No. 04110511) was provided by the Sponsor as a 50 mL fill of 10 mg/mL solution (GAL-021 freebase) in 20 mM citrate for IV Injection; Saline was sourced by the Investigator from Baxter, Lot 11F03E7L.
# Thirty (30) subjects received single IV infusions over 1, 2, 3, or 4 hours on the first day of each of 3 periods for a total of 3 dosing days per subject. Per protocol, there was to be a minimum one week washout between doses of Compound (XXXVI) for all subjects. Actual washout periods ranged from 9 to 20 days overall.
# Pharmacodynamic (PD) evaluations included tidal volume, respiratory rate, minute ventilation, end-tidal CO2, and transcutaneous hemoglobin oxygen saturation (SpO2). […]
# [3] = IV infusion 0.102 to 2.16 mg/kg, 1 to 4 hours
compound,measurement,setting,value
"CCCNc1nc(NCCC)nc(N(C)OC)n1 [XXXV, N-(4,6-Bis-n-propylamino-[1,3,5]triazin-2-yl)-N,O-dimethyl-hydroxylamine]",solubility,[1]; aqueous buffer,0.18 mg/mL
same,solubility,"[1]; pH 3.16, aqueous buffer",50 mg/mL
same,solubility,"[1]; pH 3.46, aqueous buffer",25 mg/mL
same,pH dependence of solubility,[1]; pH 3.5,solubility was high at pH 3.5 or lower
same,solubility,"[1]; pH 3.86, aqueous buffer",10 mg/mL
same,solubility,"[2]; organic solvent or mixture, thermodynamic from solid, solubility",> 90 mg/mL
same,solubility,"[2]; water, thermodynamic from solid, Solubility",~0.21 mg/mL
"CCCNc1nc(NCCC)nc(N(C)OC)n1.O=S(=O)(O)O [XXXVI, N-(4,6-Bis-n-propylamino-[1,3,5]triazin-2-yl)-N,O-dimethyl-hydroxylamine hydrogen sulfate]",solubility thermodynamic,"[1]; aqueous buffer, target pH 4.0, final pH 3.79",20.8 mg/mL
same,solubility thermodynamic,"[1]; aqueous buffer, target pH 4.5, final pH 4.37",3.46 mg/mL
same,solubility thermodynamic,"[1]; aqueous buffer, target pH 5.0, final pH 4.52",2.73 mg/mL
same,solubility thermodynamic,"[1]; aqueous buffer, target pH 5.5, final pH 5.02",0.99 mg/mL
same,appearance afterwards Shaking,[1]; target pH 2.5,Clear solution
same,(XXXVI) concentration,"[1]; target pH 2.5, final pH 2.42",104.1
same,appearance afterwards Shaking,[1]; target pH 3.0,Clear solution
same,(XXXVI) concentration,"[1]; target pH 3.0, final pH 3.00",99.8
same,appearance afterwards Shaking,[1]; target pH 3.5,Clear solution
same,(XXXVI) concentration,"[1]; target pH 3.5, final pH 3.51",101.6
same,appearance afterwards Shaking,[1]; target pH 4.0,Precipitate
same,appearance afterwards Shaking,[1]; target pH 4.5,Precipitate
same,appearance afterwards Shaking,[1]; target pH 5.0,Precipitate
same,appearance afterwards Shaking,[1]; target pH 5.5,Precipitate
same,solubility,"[2]; 0.9% NaCl, listed as (XXXV) hydrogen sulfate salt, hydrogen sulfate",>201.4 mg/mL
same,solubility,"[2]; 30% PEG-400, listed as (XXXV) hydrogen sulfate salt, hydrogen sulfate",>197.0 mg/mL and >198.4 mg/mL
same,solubility,"[2]; 30% Propylene Glycol, listed as (XXXV) hydrogen sulfate salt, hydrogen sulfate",>89.47 mg/mL
same,solubility,"[2]; 70% PEG-400, listed as (XXXV) hydrogen sulfate salt, hydrogen sulfate",>85.28 mg/mL and >91.43 mg/mL
same,solubility,"[2]; 70% Propylene Glycol, listed as (XXXV) hydrogen sulfate salt, hydrogen sulfate",>92.43 mg/mL
same,solubility,"[2]; Acetonitrile, listed as (XXXV) hydrogen sulfate salt, hydrogen sulfate",68.5 mg/mL and 67.1 mg/mL
same,solubility,"[2]; Ethanol, listed as (XXXV) hydrogen sulfate salt, hydrogen sulfate",>212.2 mg/mL
same,solubility,"[2]; Methanol, listed as (XXXV) hydrogen sulfate salt, hydrogen sulfate",>98.52 mg/mL
same,solubility,"[2]; PEG-400 (100%), listed as (XXXV) hydrogen sulfate salt, hydrogen sulfate",35.74 mg/mL
same,solubility,"[2]; Propylene Glycol (100%), listed as (XXXV) hydrogen sulfate salt, hydrogen sulfate",>94.65 mg/mL
same,solubility,"[2]; Water, listed as (XXXV) hydrogen sulfate salt, hydrogen sulfate",414.5 mg/mL and 441.5 mg/mL
same,solubility,"[2]; aqueous with cosolvent or surfactant or cyclodextrin, thermodynamic from solid, 30% PEG-400, read-out: Solubility",~198 mg/mL
same,solubility,"[2]; aqueous with cosolvent or surfactant or cyclodextrin, thermodynamic from solid, 30% Propylene Glycol, read-out: Solubility",> 93.2 mg/mL
same,solubility,"[2]; aqueous with cosolvent or surfactant or cyclodextrin, thermodynamic from solid, 30% and 70% PEG-400, read-out: solubility",≥ 90 mg/mL
same,solubility,"[2]; aqueous with cosolvent or surfactant or cyclodextrin, thermodynamic from solid, 30%, 70% and 100% propylene glycol, read-out: solubility",≥ 90 mg/mL
same,solubility,"[2]; aqueous with cosolvent or surfactant or cyclodextrin, thermodynamic from solid, 70% PEG-400, read-out: Solubility",≥ 90 mg/mL
same,solubility,"[2]; aqueous with cosolvent or surfactant or cyclodextrin, thermodynamic from solid, 70% Propylene Glycol, read-out: Solubility",> 87.8 mg/mL
same,solubility,[2]; ethanol and methanol,freely soluble
same,solubility,"[2]; organic solvent or mixture, thermodynamic from solid, Acetonitrile, read-out: Solubility",~68 mg/mL
same,solubility,"[2]; organic solvent or mixture, thermodynamic from solid, Ethanol, read-out: Solubility",> 211 mg/mL
same,solubility,"[2]; organic solvent or mixture, thermodynamic from solid, Methanol, read-out: Solubility",> 109 mg/mL
same,solubility,"[2]; organic solvent or mixture, thermodynamic from solid, PEG-400 (100%), read-out: Solubility",~36 mg/mL
same,solubility,"[2]; organic solvent or mixture, thermodynamic from solid, Propylene Glycol (100%), read-out: Solubility",> 92.1 mg/mL
same,solubility,"[2]; saline or isotonic, thermodynamic from solid, 0.9% NaCl, read-out: Solubility",> 206 mg/mL
same,solubility,"[2]; saline or isotonic, thermodynamic from solid, 5% Dextrose, read-out: Solubility",> 201 mg/mL
same,solubility,"[2]; saline or isotonic, thermodynamic from solid, IV solutions (0.9% saline and 5% dextrose), read-out: solubility",≥ 200 mg/mL
same,solubility,"[2]; water, thermodynamic from solid, Water, read-out: Solubility",> 400 mg/mL
same,solubility,"[2]; water, thermodynamic from solid, water, IV solutions (0.9% saline and 5% dextrose), ethanol, methanol, 30%, 70% and 100% propylene glycol, read-out: solubility",> 90 mg/mL
same,increase in tidal volume,healthy subjects; 0.016 mg/kg dose (so in the source),< 10%
same,minute ventilation,healthy subjects; 0.016 mg/kg/min x 1 hour,stimulated minute ventilation
same,safety and tolerability,"healthy subjects; 0.102-2.16 mg/kg IV, durations 1 to 4 hours",generally safe and well tolerated
same,dose proportionality of concentration at 1 hour and AUC,healthy subjects; [3],dose proportional
same,pharmacokinetic behaviour,healthy subjects; [3],well-behaved pharmacokinetically
same,change in respiratory rate,healthy subjects; all doses,< 10%
same,increase in minute ventilation,"healthy subjects; highest infusion rate (0.016 mg/kg/min x 1 hour), first 2 hours after start of infusion",~27%
